Columns and labels:
NTM-5 cells [1] = test: Total nitrite release by Griess assay in NTM-5 cell supernatant; assay type: cell-based, human; settings: for NO released in NTM-5 cell supernatants: 28 h at 37 °C; for start of NO release: buffer solution and TM cells
Method: (§1) The total nitrite released from the compounds in buffer and in cell supernatant were measured by Griess assay as reported by us previously. In brief, compounds (SA-2, SA-9, and SA-10) in buffer at different concentrations (1 mM, 500 µM, 250 µM 125 µM, 62.5 µM, 31.25 µM, and 15.625 µM) or supernatant collected from Human transformed trabecular meshwork (NTM-5) cells were added to a 96-well plate. 1% Sulphanilamide in 5% phosphoric acid and 0.1% N-1-napthylethylenediamine dihydrochloride (NED) were added to experimental samples sequentially at room temperature and away from light. SIN-1 was used as reference standard. UV Absorbances (Cytation 5) were measured at specific timepoints (0, 5 min, 10 min, 15 min, 30 min, 24 h, and 28 h) at 520 nm.
(§2) The experiments were repeated twice with four technical replicates.

[2] = Hypochlorous acid (HOCl) radical scavenging assay (TNB) in buffer; assay type: biochemical
Method: This assay used the redox reaction between 5-thio-2-nitrobenzoic acid (TNB) and HOCl to form dithio-TNB. Using the method described previously, we assessed the % TNB remaining with or without treatment with SA compounds. Compounds SA-2, SA-9, and SA-10 were used in concentrations ranging from 0.1 µM, 1 µM, 10 µM, 100 µM, and 1000 µM. Lipoic acid (1 mM) was used as positive control.

[3] = Total nitrite/NO release by Griess assay in buffer (aqueous stability); assay type: physicochemical; settings: even after 3 days
Method: as §1, with “UV Absorbances (Cytation 5) were measured at specific timepoints (0, 5 min, 10 min, 15 min, 30 min, 24 h, and 28 h) at 520 nm.” left out

NTM-5 cells [4] = test: Superoxide scavenging ratio in NTM-5 cell supernatant (pyrogallol assay), with or without TBHP; assay type: cell-based, human; settings: for AUC0-3h of superoxide scavenging ratio: NTM-5 cell supernatant, 18 h treatment, 0.1-1000 µM
Method: The ROS scavenging ratio was determined using a chemical assay where WST-1 was used as superoxide scavenger produced by pyrogallol following a reported protocol. Briefly, the superoxide anion radical scavenging activity was determined spectrophotometrically by measuring the formation of WST-1 formazan at 450 nm. WST-1 (40 µL, 50 µM) was added to the compounds (or corresponding solution) in a final volume of 160 µL in 50 mM ammonium hydrogen carbonate buffer, 0.5 mM EDTA, pH 9.3. Reaction was launched by adding 40 µL 1 mM pyrogallol. The operation was based on the 96-well microplate, and measurement was performed at different time points under 37 °C by Cytation5 Microplate Reader. Baicalein (1 mM) was used as positive control. Compounds SA-2, SA-9, and SA-10 were used in concentrations ranging from 1 µM, 10 µM, 100 µM, and 1000 µM. The superoxide anion radical scavenging ratio % was calculated according to the following formula:Scavenging ratio (%) = A0 − (A1 − A2)/A0 × 100% […]
as §2
Figure 2 Superoxide scavenging ability of SA compounds in buffer and cells. (a) The % of superoxide scavenging response from 1 mM concentration of SA-2, SA-9, and SA-10 in pyrogallol (Pyr, 1 mM) induced superoxide induction assay at different time points in buffer. The AUC0–2.5 h for SA-2, SA-9, and SA-10 were 1592 ± 37.87, 1355 ± 42.62, and 2350 ± 69.26, respectively. (b) Comparison of the % ROS scavenging activity of SA-2, SA-9, and SA-10 with control after 15 min of treatment of pyrogallol. (c) The superoxide scavenging ratio (%) after 18 h treatment of 10 µM concentration of SA-2, SA-9, and SA-10 to NTM-5 cell supernatant using pyrogallol induced superoxide induction assay at different time points. (d) The superoxide scavenging ratio (%) of 10 µM concentration of SA-2, SA-9, and SA-10 in NTM-5 cell supernatant. The cells were previously treated with 5.5 mM of TBHP for 30 min followed by SA compounds and incubated for 18 h. Control is untreated cells. Three technical replicates were used for each experiment and all experiments were repeated 2 times. * p < 0.05, ** p < 0.005, *** p < 0.001, **** p < 0.0001, One-way ANOVA for (b), and two-way ANOVA for (c,d).
Figure S1: Superoxide scavenging ability of SA compounds in buffer and cells. a) The % of superoxide scavenging response from different concentrations of SA-2, SA-9 and SA-10 in pyrogallol (1 µM, 10 µM, 100 µM and 1,000 µM) induced superoxide induction assay at 15 minutes time point in buffer solution. The […]
superoxide scavenging ratio (%) after 18h treatment of different concentrations (0.1 µM, 1 µM, 10 µM, 100 µM and 1,000 µM) of SA-2, SA-9 and SA-10 to NTM-5 cell supernatant with or without TBHP (5.5 mM) using pyrogallol induced superoxide induction assay at 3h time point. Control is untreated cells. The cells were previously treated with 5.5 mM of TBHP for 30 minutes followed by SA compounds and TBHP and incubated for 18h. Control is untreated cells. e) The AUC0-3h for SA-2, SA-9 and SA-10 were 18902 ± 2714, […]
for each experiment and all experiments were repeated 2 times. N = 3.
(1 picture or pasted object on this page, not shown here)

NTM-5 cells [5] = test: In vitro cell viability (MTT) assay; settings: for cytotoxicity: NTM-5 cells, 24 h, up to 1000 µM
NTM-5 cells [6] = test: In vitro peroxynitrite measurement assay; assay type: cell-based, human; settings: 0.1 µM and 1 mM, with or without TBHP 350 µM
Method: Human transformed trabecular meshwork (NTM-5) cells (20,000 cells/well/90 µL) were seeded in 96-well plates (Griener bio-one black plate) and stained with 10 µL of 10X Peroxynitrite Sensor Green solution for 1 h. […] SIN-1 was used as a positive control. Detection of peroxynitrite was done using Peroxynitrite Assay Kit (abcam-ab233468-cell based). Fluorescence signals were measured using a microplate reader (Cytation5) at Ex/Em = 485/530 nm at time intervals (15 min, 30 min, 1 h, 2 h, and 3 h). The experiments were done in duplicates.

[7] = Superoxide anion radical scavenging assay (pyrogallol/WST-1) in buffer; assay type: biochemical; settings: for AUC0–2.5 h of % superoxide scavenging response: 1 mM compound, pyrogallol 1 mM; for earliest time of superoxide (O2−) radical scavenging: buffer solution and TM cells; for superoxide radicals scavenged: dose response 1-1000 µM; for AUC0-15 of % superoxide scavenging response: different concentrations 1-1000 µM, 15 minutes time point
Method: The ROS scavenging ratio was determined using a chemical assay where WST-1 was used as superoxide scavenger produced by pyrogallol following a reported protocol. Briefly, the superoxide anion radical scavenging activity was determined spectrophotometrically by measuring the formation of WST-1 formazan at 450 nm. WST-1 (40 µL, 50 µM) was added to the compounds (or corresponding solution) in a final volume of 160 µL in 50 mM ammonium hydrogen carbonate buffer, 0.5 mM EDTA, pH 9.3. Reaction was launched by adding 40 µL 1 mM pyrogallol. The operation was based on the 96-well microplate, and measurement was performed at different time points under 37 °C by Cytation5 Microplate Reader. Baicalein (1 mM) was used as positive control. Compounds SA-2, SA-9, and SA-10 were used in concentrations ranging from 1 µM, 10 µM, 100 µM, and 1000 µM. The superoxide anion radical scavenging ratio % was calculated according to the following formula:Scavenging ratio (%) = A0 − (A1 − A2)/A0 × 100%

NTM-5 cells [8] = test: In vitro cytoprotection assay against TBHP (MTT); assay type: cell-based; settings: Homo sapiens, TBHP 350 µM, read-out: EC50 of increase in cell viability (cytoprotection)
Method: After 24 h of treatment, cell proliferation was measured using MTT assay. All the experiments are done in duplicate with four experimental replicates.

[9] = parameters: method as in PMID 26832784; settings: PBS 7.4; cited from earlier work
intraocular pressure [10] = test: IOP lowering in dexamethasone induced ocular hypertensive (OHT) mouse eyes; assay type: in vivo; settings: periocular once every week for 4 weeks, baseline 11.85 ± 2.27
Method: Mice (C57BL/6J, 12 weeks, n = 3–5) were anesthetized and the periocular injection of dexamethasone acetate (DEX-Ac, 10 mg/mL) or vehicle (20 μL) was administered immediately under the isoflurane over the course of 10 to 15 s. The procedure was performed in both eyes of each mice after it was numbed with proparacaine as reported previously. Mice were treated with DEX-Ac or vehicle once per week for four weeks to achieve the desired IOP elevation. Baseline IOP was measured using tonometer. […] The entire dosing schedule was repeated 3 times in each mouse eye. IOP plots were generated from IOP values obtained from the treated eyes.

intraocular pressure [11] = system: intraocular pressure; parameters: method as in private communication, unpublished result; settings: monkey eyes; ref private communication, unpublished result; cited from earlier work
intraocular pressure [12] = system: intraocular pressure; parameters: method as in PMID 8675417; settings: rabbit eyes, 20 mM, intraocular injection; cited from earlier work

SMILES | NO released in NTM-5 cell supernatants (NTM-5 cells [1]) | start of NO release (NTM-5 cells [1]) [h] | AUC0-3h of superoxide scavenging ratio (NTM-5 cells [4]; with TBHP 5.5 mM) | AUC0-3h of superoxide scavenging ratio (NTM-5 cells [4]; without TBHP) | cytotoxicity (NTM-5 cells [5]) | ONOO− radical formation (NTM-5 cells [6]) | AUC0–2.5 h of % superoxide scavenging response ([7]; buffer) | earliest time of superoxide (O2−) radical scavenging [7] [min] | superoxide radicals scavenged ([7]; buffer) | AUC0-15 of % superoxide scavenging response ([7]; buffer) | EC50 (NTM-5 cells [8]) [µM] | other results
Cl.[NH-]c1c[n+](C2CCS(=O)(=O)CC2)no1 [SA-10, (3-(1,1-dioxidotetrahydro-2H-thiopyran-4-yl)-1,2,3-oxadiazol-3-ium-5-yl) amide hydrochloride] | dose dependently | > 24 | 17893 ± 2714 | 21444 ± 1877 | no cytotoxicity | not as efficacious as SA-9 | 2350 ± 69.26 | 7 | 16–40% | 20433± 3128 | 0.0103 | fold more potent than lipoic acid in HOCl scavenging ([2]; 0.1 µM vs. 1 mM lipoic acid, 30 min): 10,000 fold; duration of HOCl scavenging effect ([2]; 0.1 µM–1000 µM in buffer): > 1 h; NO release in buffer [3]: did not observe any NO release; superoxide scavenging ability (ratio) (NTM-5 cells [4]; 10 µM for 18 h, NTM-5 cells insulted with TBHP, TBHP alone 2.5%): 20–25%; fold prevention of the decrease in superoxide scavenging ability vs TBHP alone (NTM-5 cells [4]; 10 µM for 18 h, TBHP-treated NTM-5 cells): ~ 10 fold; fold more potent than SA-2 in superoxide scavenging ([7]; 1 mM, buffer, 15 min after pyrogallol): 2.5 fold
CC1(C)CC([n+]2cc([NH-])on2)CC(C)(C)N1O [SA-2, reference compound] | dose dependently | > 24 | 18285 ± 3960 | 18902 ± 2714 | no cytotoxicity | produced less | 1592 ± 37.87 | 7 | 16–40% | 11604± 815.9 | 5.2 | half-life in PBS7.4 [9]: < 1 h
CC(=O)OCC(=O)[C@@]1(O)[C@H](C)C[C@H]2[C@@H]3CCC4=CC(=O)C=C[C@]4(C)[C@@]3(F)[C@@H](O)C[C@@]21C [Dexamethasone, dexamethasone acetate] | – | – | – | – | – | – | – | – | – | – | – | IOP after dexamethasone injection (intraocular pressure [10]): 21.9 ± 5.92 mm/Hg
CC(C)(C)OO [TBHP, t-butyl hydrogen peroxide, reference compound] | – | – | – | – | – | – | – | – | – | – | – | EC50 (NTM-5 cells [5]; Homo sapiens, read-out: half-maximal effective concentration (EC50) dose of TBHP): 350 µM
CCOC(=O)[N-]c1cn(N2CCOCC2)n[o+]1 [Molsidomine, molsidomine] | – | – | – | – | – | – | – | – | – | – | – | NO release profile or IOP lowering activity (intraocular pressure [11]): no NO release profile or IOP lowering activity
[NH-]c1c[n+](N2CCOCC2)no1 [SIN-1, linsidomine, reference compound] | – | – | – | – | – | significantly higher level | – | – | – | – | – | duration of IOP reduction (intraocular pressure [12]): up to 3 h

— PMC8068288, “Novel Thiol Containing Hybrid Antioxidant-Nitric Oxide Donor Small Molecules for Treatment of Glaucoma” (Antioxidants, 2021)
